Results: EP4682141A1, “TRICYCLIC COMPOUND” (ONO Pharmaceutical Co., Ltd., priority 2023, dated 2024)

Columns and labels:
EP1 = molecular target: T1, EP1 (Homo sapiens, UniProt P34995); experiment: agonist activity on human EP1 receptor (intracellular calcium concentration, EP1-CHO cells); format: cell-based
T1 construct: expressed in transfected cells; host or cells: CHO (EP1-CHO)
T1 sequence (P34995 1-402): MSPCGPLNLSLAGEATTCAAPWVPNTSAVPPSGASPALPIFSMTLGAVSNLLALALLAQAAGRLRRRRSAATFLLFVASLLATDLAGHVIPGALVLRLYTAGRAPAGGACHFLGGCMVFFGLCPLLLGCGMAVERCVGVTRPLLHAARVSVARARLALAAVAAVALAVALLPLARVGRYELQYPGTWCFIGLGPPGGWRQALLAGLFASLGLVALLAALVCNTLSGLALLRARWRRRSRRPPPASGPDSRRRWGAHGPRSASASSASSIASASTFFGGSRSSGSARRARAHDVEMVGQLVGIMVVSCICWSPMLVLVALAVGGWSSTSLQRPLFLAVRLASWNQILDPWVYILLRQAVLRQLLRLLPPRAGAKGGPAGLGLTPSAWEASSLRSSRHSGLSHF
Procedure, shortened: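 Calcium 6 dye loaded 1 h at room temperature in HBSS with 1% human serum albumin, 2 µmol/L indomethacin, 2.5 mmol/L probenecid, pH 7.4; agonists then added at various concentrations. Intracellular calcium read by fluorescence (ex 480/em 540 nm) in CHO cells expressing human EP1 or Chem1 cells expressing human EP3.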

[1] = tested on: diabetic renal disease model rat; experiment: in vivo drug efficacy in diabetic renal disease model rat (single kidney removal, saline); parameters: species or system SDT.Cg-Leprfa/JttJcl (SDT-fatty rat); details: 8 weeks after the start of administration
Method: A diabetic renal disease model was created by extracting the unilateral kidneys of male SDT.Cg-Leprfa/JttJcl (SDT-fatty/Jcl, CLEA Japan) rats, a type 2 diabetes model, and then giving saline. The in vivo drug efficacy of the present compound on diabetic renal disease was evaluated in this model.
Male SDT.Cg-Leprfa/JttJcl (SDT-fatty rat) aged 4 weeks was purchased from CLEA Japan, and subjected to experiments. The animals were fed ad libitum with Purina5008 (Japan SLC) from the time of arrival, and watered ad libitum. Water was given from the arrival and until 1 week from single kidney removal, and a 0.2 w/v% NaCl solution was given 1 week after single kidney removal.
After acclimation breeding, the body weight was measured, and buprenorphine was subcutaneously administered at a dose of 0.01 mg/kg under inhalation anesthesia with isoflurane (Mayran). After removing hair from the right abdomen of the rat, the right abdomen was disinfected with ethanol and isodine for disinfection and incised to expose the right kidney. The renal artery and vein was ligated with a suture to stop the blood flow, the right kidney was totally removed, and the incision was sutured. The following day, analgesic buprenorphine was administered subcutaneously at a dose of 0.01 mg/kg.
Grouping was performed 3 weeks after single kidney removal. The mice were divided into groups so that the average of the above parameters was almost equal between the groups on the basis of body weight, serum urea nitrogen (BUN), serum creatinine (S-CRE), serum total cholesterol (T-CHO), blood glucose level (GLU), neutral fat (TG), urinary protein (U-TP), urinary albumin (U-ALB), and creatinine clearance (CCr).
All of the compounds of Examples 25-7, 10, 11 and 12 were orally administered once a day for 8 weeks in combination with losartan (30 mg/kg), a renin angiotensin system inhibitor, and canagliflozin (10 mg/kg), a glucose co-transporter inhibitor. The compounds of Examples 25-7, 10, 11 and 12, and losartan were each dissolved in water for injection (Otsuka Pharmaceutical), and canagliflozin was suspended in a 0.5% methyl cellulose solution (Fujifilm Wako Pure Chemical Corporation) to prepare an administration solution. In the Control-1 group, water for injection which is a vehicle of losartan or the compound of Examples 25-7, 10, 11 or 12 was orally administered at 5 mL/kg, and a 0.5% methylcellulose solution which is a vehicle of canagliflozin was orally administered at 2.5 mL/kg once a day for 8 weeks. In the Control-2 group, losartan (30 mg/kg) dissolved in water for injection was orally administered at an administration volume of 2.5 mL/kg, canagliflozin (10 mg/kg) suspended in a 0.5% methyl cellulose solution was orally administered at an administration volume of 2.5 mL/kg, and water for injection which is a vehicle of the compounds of Examples 25-7, 10, 11 and 12 was orally administered at an administration volume of 2.5 mL/kg once a day for 8 weeks. The administration dose is described in Table 8.
Blood was collected by puncturing the tail vein of the rat with an injection needle. Blood was collected in a tube for serum separation (BD Microtainer) and centrifuged to obtain serum. Urine was collected for 24 hours in a metabolic cage for rat under conditions in which a solid feed and water can be freely taken. The obtained urine sample was centrifuged, and the supernatant was subjected to measurement. The concentrations of BUN, S-CRE, T-CHO, TG, U-ALB, U-TP, GLU and U-CRE were measured by an automatic analyzer Hitachi 7180 (Hitachi High-Tech).

For Cc1c(C(=O)O)ccc2c1O[C@H]1C[C@@H](O)[C@H](/C=C/C[C@@](C)(O)CCCC(F)(F)F)[C@H]1CC2 [Example 12, (1R,2R,3aS,10aR)-2-hydroxy-5-methyl-1-[(1E,4S)-8,8,8-trifluoro-4-hydroxy-4-methyl-1-octen-1-yl]-2,3,3a,9,10,10a-hexahydro-1H-benzo[b]cyclopenta[f]oxepine-6-carboxylic acid], the EC50 (EP1) was 3.5 µM, the Serum creatinine mean ([1]; 0.01 mg/kg orally once a day for 8 weeks in combination with losartan (30 mg/kg) and canagliflozin (10 mg/kg)) was 0.51 mg/dL and the Serum creatinine mean ([1]; 0.03 mg/kg orally once a day for 8 weeks in combination with losartan (30 mg/kg) and canagliflozin (10 mg/kg)) was 0.45 mg/dL.

Work on CC(C)(c1ccccc1)C(O)/C=C/[C@H]1CC[C@@H]2Oc3c(ccc(C(=O)O)c3F)CC[C@@H]21 (stereo partly drawn) [Example 25-7, (1R,3aS,10aR)-5-fluoro-1-[(1E,3ξ)-3-hydroxy-4-methyl-4-phenyl-1-penten-1-yl]-2,3,3a,9,10,10a-hexahydro-1H-benzo[b]cyclopenta[f]oxepine-6-carboxylic acid] yielded an EC50 (EP1) greater than 10 µM and a Serum creatinine mean ([1]; 0.1 mg/kg orally once a day for 8 weeks in combination with losartan (30 mg/kg) and canagliflozin (10 mg/kg)) of 0.45 mg/dL.
